Reference: patent US11247990B1, “Bicyclic fused pyridine compounds as inhibitors of TAM kinases” (ARRAY BIOPHARMA INC., priority 2017, dated 2022)

Molecular target: His-tagged recombinant human MER cytoplasmic domain (Homo sapiens (Human), UniProt Q12866)
Test: MER Enzyme Assay (LanthaScreen Eu Kinase Binding, TR-FRET)
Details: averaged IC50
Description: Compounds of Formula I were screened for their ability to inhibit MER kinase using Invitrogen's LanthaScreen™ Eu Kinase Binding technology. […] After a 60-minute incubation at 22° C., the reaction was measured using a PerkinElmer EnVision multimode plate reader via TR-FRET dual wavelength detection, and the percent of control (POC) was calculated using a ratiometric emission factor. […] The POC values are fit to a 4 parameter logistic curve and the IC50 value is point where the curve crosses 50 POC.

Sequence of His-tagged recombinant human MER cytoplasmic domain (Q12866 527-999): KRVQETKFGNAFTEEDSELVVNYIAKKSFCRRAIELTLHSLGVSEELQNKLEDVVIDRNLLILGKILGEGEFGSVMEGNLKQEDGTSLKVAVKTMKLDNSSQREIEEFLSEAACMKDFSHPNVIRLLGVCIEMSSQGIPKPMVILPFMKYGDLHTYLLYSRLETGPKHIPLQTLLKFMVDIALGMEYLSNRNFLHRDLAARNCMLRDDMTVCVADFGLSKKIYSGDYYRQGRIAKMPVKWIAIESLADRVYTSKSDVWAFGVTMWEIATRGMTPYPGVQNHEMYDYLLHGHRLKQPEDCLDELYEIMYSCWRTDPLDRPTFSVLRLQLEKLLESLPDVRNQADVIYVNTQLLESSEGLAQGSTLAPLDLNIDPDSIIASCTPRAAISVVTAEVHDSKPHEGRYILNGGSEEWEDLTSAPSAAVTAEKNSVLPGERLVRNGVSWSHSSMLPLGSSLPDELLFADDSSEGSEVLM

Row | Compound | IC50 [µM]
1 | CNc1cc2c(cn1)c(-c1cnn(C)c1)nn2[C@H]1CC[C@@H](Oc2ccc(=O)[nH]c2)CC1 [Example 25, 5-(((1s,4s)-4-(3-(1-methyl-1H-pyrazol-4-yl)-6-(methylamino)-1H-pyrazolo[4,3-c]pyridin-1-yl)cyclohexyl)oxy)pyridin-2(1H)-one] | < 0.01
2 | CCNc1cc2c(cn1)c(-c1ccc(CN3CCN(CCOC)CC3)cc1)nn2[C@H]1CC[C@@H](Oc2ccc(=O)n(C)n2)CC1 [Example 82, 6-(((1s,4s)-4-(6-(ethylamino)-3-(4-((4-(2-methoxyethyl)piperazin-1-yl)methyl)phenyl)-1H-pyrazolo[4,3-c]pyridin-1-yl)cyclohexyl)oxy)-2-methylpyridazin-3(2H)-one] | < 0.01
3 | CCNc1cc2c(cn1)c(-c1ccc(CN3CC[C@@H](OC)C3)cc1)nn2[C@H]1CC[C@@H](Oc2ccc(=O)n(C)n2)CC1 [Example 83, 6-(((1S,4s)-4-(6-(ethylamino)-3-(4-(((R)-3-methoxypyrrolidin-1-yl)methyl)phenyl)-1H-pyrazolo[4,3-c]pyridin-1-yl)cyclohexyl)oxy)-2-methylpyridazin-3(2H)-one] | < 0.01
4 | CCNc1cc2c(cn1)c(-c1ccc(CN3CC(C)(O)C3)cc1)nn2[C@H]1CC[C@@H](Oc2ccc(=O)n(C)n2)CC1 [Example 90, 6-(((1s,4s)-4-(6-(ethylamino)-3-(4-((3-hydroxy-3-methylazetidin-1-yl)methyl)phenyl)-1H-pyrazolo[4,3-c]pyridin-1-yl)cyclohexyl)oxy)-2-methylpyridazin-3(2H)-one] | < 0.01
5 | CCNc1cc2c(cn1)c(-c1ccc(CN3CC[C@@H](CO)C3)cc1)nn2[C@H]1CC[C@@H](Oc2ccc(=O)n(C)n2)CC1 [Example 95, 6-(((1S,4s)-4-(6-(ethylamino)-3-(4-(((R)-3-(hydroxymethyl)pyrrolidin-1-yl)methyl)phenyl)-1H-pyrazolo[4,3-c]pyridin-1-yl)cyclohexyl)oxy)-2-methylpyridazin-3(2H)-one] | < 0.01
6 | CCNc1cc2c(cn1)c(-c1ccc(CN3C[C@H](C)[C@@H](O)C3)cc1)nn2[C@H]1CC[C@@H](Oc2ccc(=O)n(C)n2)CC1 [Example 96, 6-(((1S,4s)-4-(6-(ethylamino)-3-(4-(((3R,4S)-3-hydroxy-4-methylpyrrolidin-1-yl)methyl)phenyl)-1H-pyrazolo[4,3-c]pyridin-1-yl)cyclohexyl)oxy)-2-methylpyridazin-3(2H)-one] | < 0.01
7 | CCNc1cc2c(cn1)c(-c1ccc(CN3CC[C@@H](C)C3)cc1)nn2C1CCC(Oc2ccc(=O)n(C)n2)CC1 (stereo partly drawn) [Example 98, 6-(((1S,4s)-4-(6-(ethylamino)-3-(4-(((R)-3-methylpyrrolidin-1-yl)methyl)phenyl)-1H-pyrazolo[4,3-c]pyridin-1-yl)cyclohexyl)oxy)-2-methylpyridazin-3(2H)-one] | < 0.01
8 | CCNc1cc2c(cn1)c(Br)nn2[C@H]1CC[C@@H](Oc2ccc(=O)[nH]c2C(F)(F)F)CC1 [Example 106] | < 0.01
9 | CNc1cc2c(cn1)c(-c1cnn(C)c1)nn2[C@H]1CC[C@@H](Oc2cccc(=O)n2C)CC1 [Example 110, 1-methyl-6-(((1s,4s)-4-(3-(1-methyl-1H-pyrazol-4-yl)-6-(methylamino)-1H-pyrazolo[4,3-c]pyridin-1-yl)cyclohexyl)oxy)pyridin-2(1H)-one] | < 0.01
10 | CNc1cc2c(cn1)c(-c1cnn(C)c1)nn2[C@H]1CC[C@@H](Oc2cccnc2OC)CC1 [Example 142, 1-((1s,4s)-4-((2-methoxypyridin-3-yl)oxy)cyclohexyl)-N-methyl-3-(1-methyl-1H-pyrazol-4-yl)-1H-pyrazolo[4,3-c]pyridin-6-amine] | < 0.01
11 | CNc1cc2c(cn1)c(-c1cnn(C)c1)nn2[C@H]1CC[C@@H](Oc2ccnn2C)CC1 [Example 143, N-methyl-3-(1-methyl-1H-pyrazol-4-yl)-1-((1s,4s)-4-((1-methyl-1H-pyrazol-5-yl)oxy)cyclohexyl)-1H-pyrazolo[4,3-c]pyridin-6-amine] | < 0.01
12 | CNc1cc2c(cn1)c(-c1cnn(C)c1)nn2[C@H]1CC[C@@H](Oc2nccc(C(F)(F)F)n2)CC1 [Example 153, N-methyl-3-(1-methyl-1H-pyrazol-4-yl)-1-((1s,4s)-4-((4-(trifluoromethyl)pyrimidin-2-yl)oxy)cyclohexyl)-1H-pyrazolo[4,3-c]pyridin-6-amine] | < 0.01
13 | CCNc1cc2c(cn1)c(-c1cnn(C(C)(C)C#N)c1)nn2[C@H]1CC[C@@H](Oc2nccnc2C)CC1 [Example 181, 2-(4-(6-(ethylamino)-1-((1s,4s)-4-((3-methylpyrazin-2-yl)oxy)cyclohexyl)-1H-pyrazolo[4,3-c]pyridin-3-yl)-1H-pyrazol-1-yl)-2-methylpropanenitrile] | < 0.01
14 | CCNc1cc2c(cn1)c(-c1cnn(C)c1)nn2[C@H]1CC[C@@H](Oc2cccnc2C)CC1 [Example 185, N-ethyl-3-(1-methyl-1H-pyrazol-4-yl)-1-((1s,4s)-4-((2-methylpyridin-3-yl)oxy)cyclohexyl)-1H-pyrazolo[4,3-c]pyridin-6-amine] | < 0.01

The remaining lines, values ahead:

Row | IC50 [µM] | Compound
15 | < 0.01 | CCNc1cc2c(cn1)c(-c1cnn(C)c1)nn2[C@H]1CC[C@@H](Oc2cccnc2C2CC2)CC1 [Example 186, 1-((1s,4s)-4-((2-cyclopropylpyridin-3-yl)oxy)cyclohexyl)-N-ethyl-3-(1-methyl-1H-pyrazol-4-yl)-1H-pyrazolo[4,3-c]pyridin-6-amine]
16 | < 0.01 | CCNc1cc2c(cn1)c(-c1cnn(C)c1)nn2[C@H]1CC[C@@H](Oc2nccnc2C)CC1 [Example 189, N-ethyl-3-(1-methyl-1H-pyrazol-4-yl)-1-((1s,4s)-4-((3-methylpyrazin-2-yl)oxy)cyclohexyl)-1H-pyrazolo[4,3-c]pyridin-6-amine]
17 | < 0.01 | CCNc1cc2c(cn1)c(-c1cnn(C)c1)nn2[C@H]1CC[C@@H](Oc2cccnc2C(C)C)CC1 [Example 192, N-ethyl-1-((1s,4s)-4-((2-isopropylpyridin-3-yl)oxy)cyclohexyl)-3-(1-methyl-1H-pyrazol-4-yl)-1H-pyrazolo[4,3-c]pyridin-6-amine]
18 | < 0.01 | CCNc1cc2c(cn1)c(-c1cnn(C)c1)nn2[C@H]1CC[C@@H](Oc2cccnc2CC)CC1 [Example 193, N-ethyl-1-((1s,4s)-4-((2-ethylpyridin-3-yl)oxy)cyclohexyl)-3-(1-methyl-1H-pyrazol-4-yl)-1H-pyrazolo[4,3-c]pyridin-6-amine]
19 | < 0.01 | CCNc1cc2c(cn1)c(-c1cnn(C)c1)nn2[C@H]1CC[C@@H](Oc2cc(C#N)ccn2)CC1 [Example 200, 2-(((1s,4s)-4-(6-(ethylamino)-3-(1-methyl-1H-pyrazol-4-yl)-1H-pyrazolo[4,3-c]pyridin-1-yl)cyclohexyl)oxy)isonicotinonitrile]
20 | < 0.01 | CCNc1cc2c(cn1)c(-c1cnn(C)c1)nn2[C@H]1CC[C@@H](Oc2cnnn2CC)CC1 [Example 225, N-ethyl-1-((1 s,4s)-4-((1-ethyl-1H-1,2,3-triazol-5-yl)oxy)cyclohexyl)-3-(1-methyl-1H-pyrazol-4-yl)-1H-pyrazolo[4,3-c]pyridin-6-amine]
21 | < 0.01 | CCNc1cc2c(cn1)c(-c1ccc(CN3CCN(C)CC3)cc1)nn2[C@H]1CC[C@@H](Oc2cn(C)nc2C)CC1 [Example 229, 1-((1s,4s)-4-((1,3-dimethyl-1H-pyrazol-4-yl)oxy)cyclohexyl)-N-ethyl-3-(4-((4-methylpiperazin-1-yl)methyl)phenyl)-1H-pyrazolo[4,3-c]pyridin-6-amine]
22 | < 0.01 | CCNc1cc2c(cn1)c(-c1ccc3c(c1)CNC3=O)nn2[C@H]1CC[C@@H](Oc2cn(C)nc2C)CC1 [Example 230, 5-(1-((1s,4s)-4-((1,3-dimethyl-1H-pyrazol-4-yl)oxy)cyclohexyl)-6-(ethylamino)-1H-pyrazolo[4,3-c]pyridin-3-yl)isoindolin-1-one]
23 | < 0.01 | CCNc1cc2c(cn1)c(-c1ccc(C(=O)NC3CC3)cc1)nn2[C@H]1CC[C@@H](Oc2cn(C)nc2C)CC1 [Example 231, N-cyclopropyl-4-(1-((1s,4s)-4-((1,3-dimethyl-1H-pyrazol-4-yl)oxy)cyclohexyl)-6-(ethylamino)-1H-pyrazolo[4,3-c]pyridin-3-yl)benzamide]
24 | < 0.01 | CCNc1cc2c(cn1)c(-c1ccc(CN3CCN(C)CC3)cc1)nn2[C@H]1CC[C@@H](Oc2cnn(C)c2)CC1 [Example 233, N-ethyl-1-((1s,4s)-4-((1-methyl-1H-pyrazol-4-yl)oxy)cyclohexyl)-3-(4-((4-methylpiperazin-1-yl)methyl)phenyl)-1H-pyrazolo[4,3-c]pyridin-6-amine]
25 | < 0.01 | CCNc1cc2c(cn1)c(-c1cnn(C[C@@H](O)CO)c1)nn2[C@H]1CC[C@@H](Oc2ccnc(C(F)(F)F)n2)CC1 [Example 241, (R)-3-(4-(6-(ethylamino)-1-((1s,4S)-4-((2-(trifluoromethyl)pyrimidin-4-yl)oxy)cyclohexyl)-1H-pyrazolo[4,3-c]pyridin-3-yl)-1H-pyrazol-1-yl)propane-1,2-diol]
26 | < 0.01 | CCNc1cc2c(cn1)c(-c1cnc(OC)nc1)nn2[C@H]1CC[C@@H](Oc2nccc(C(F)(F)F)c2F)CC1 [Example 269, N-ethyl-1-((1s,4s)-4-((3-fluoro-4-(trifluoromethyl)pyridin-2-yl)oxy)cyclohexyl)-3-(2-methoxypyrimidin-5-yl)-1H-pyrazolo[4,3-c]pyridin-6-amine]
27 | < 0.01 | CCNc1cc2c(cn1)c(C1CCCOC1)nn2[C@H]1CC[C@@H](Oc2nccc(C(F)(F)F)c2F)CC1 (stereo partly shown) [Example 318, N-ethyl-1-((1s,4s)-4-((3-fluoro-4-(trifluoromethyl)pyridin-2-yl)oxy)cyclohexyl)-3-(tetrahydro-2H-pyran-3-yl)-1H-pyrazolo[4,3-c]pyridin-6-amine]
28 | < 0.01 | CNc1cc2c(cn1)c(-c1cnn(C)c1)nn2[C@H]1CC[C@@H](Oc2c(F)cccc2F)CC1 [Example 356, 1-((1s,4s)-4-(2,6-difluorophenoxy)cyclohexyl)-N-methyl-3-(1-methyl-1H-pyrazol-4-yl)-1H-pyrazolo[4,3-c]pyridin-6-amine]
